We go through 31 compounds from US12162888B2, “Carboxamides as ubiquitin-specific protease inhibitors” (Valo Early Discovery, Inc., priority 2018, dated 2024).

Read-outs that look alike come from different tables or passages of the source. Some results are limits rather than exact numbers.

The test addresses T1, USP25 (USP25-His6, Boston Biochem E-546) (Homo sapiens, UniProt Q9UHP3).
T1 construct: His6 (C); purchased Boston Biochem E-546
T1 sequence (Q9UHP3 1-1055): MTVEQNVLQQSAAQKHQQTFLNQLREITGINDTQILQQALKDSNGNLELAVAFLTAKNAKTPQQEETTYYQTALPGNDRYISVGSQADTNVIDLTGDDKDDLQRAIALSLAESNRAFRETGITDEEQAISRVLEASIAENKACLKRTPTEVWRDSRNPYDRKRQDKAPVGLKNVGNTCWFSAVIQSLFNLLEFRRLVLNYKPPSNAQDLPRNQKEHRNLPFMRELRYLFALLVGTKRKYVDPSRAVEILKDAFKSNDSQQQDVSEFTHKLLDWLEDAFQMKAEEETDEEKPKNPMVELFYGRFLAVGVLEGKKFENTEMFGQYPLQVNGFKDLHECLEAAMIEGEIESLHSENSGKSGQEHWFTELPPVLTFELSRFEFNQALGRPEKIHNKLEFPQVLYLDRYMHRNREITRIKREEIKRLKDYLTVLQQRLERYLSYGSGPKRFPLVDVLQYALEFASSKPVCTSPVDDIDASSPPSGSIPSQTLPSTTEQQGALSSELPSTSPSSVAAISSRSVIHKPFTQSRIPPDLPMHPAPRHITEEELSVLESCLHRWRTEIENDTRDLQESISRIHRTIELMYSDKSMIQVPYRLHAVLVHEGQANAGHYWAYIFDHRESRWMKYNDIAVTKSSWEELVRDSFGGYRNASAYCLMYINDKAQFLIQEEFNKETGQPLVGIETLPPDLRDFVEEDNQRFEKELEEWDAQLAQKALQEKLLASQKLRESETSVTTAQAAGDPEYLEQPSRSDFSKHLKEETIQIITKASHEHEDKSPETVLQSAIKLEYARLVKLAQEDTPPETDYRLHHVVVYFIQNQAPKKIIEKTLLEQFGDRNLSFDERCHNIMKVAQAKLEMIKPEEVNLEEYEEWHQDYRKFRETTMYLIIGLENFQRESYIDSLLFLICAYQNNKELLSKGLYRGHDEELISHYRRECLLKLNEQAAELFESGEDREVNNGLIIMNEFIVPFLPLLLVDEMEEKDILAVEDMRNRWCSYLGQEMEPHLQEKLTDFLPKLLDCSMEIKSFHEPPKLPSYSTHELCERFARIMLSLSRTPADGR
Nature of the test: Ubiquitin-Rhodamine 110 Assay for USP25 Activity, Example A-3. Type of test: biochemical. The settings on record: Ubiquitin-Rhodamine 110 assay, Example A-3. A digest of the protocol:
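USP25-His6 ([…] final as stated) preincubated 30 min with compound (10-point, 25 μM to 1.3 nM), then Ub-Rh110 at 25 nM (<<Km) added in pH 8.0 Tris buffer with BME, BGG and Triton X-100. Reaction stopped after 45 min at room temperature with 10 mM citric acid; fluorescence read at 485/535 nm.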

The mark [1] stands for this setting: biochemical IC50 range, read-out: USP25 A-3.

For the compound `Cc1ccc2c(N)c(C(=O)N[C@H]3CCc4cc(N5CC6CNCC(C5)O6)cc(F)c4C3)sc2n1` (single isomer, unassigned) [Example 11-39], the IC50 (read-out: USP25 A-3 IC50 range) was over 2000 nM.

For the compound `Cc1ccc2c(N)c(C(=O)N[C@H]3CCc4nc(N5C[C@H](N)[C@@]6(CCOC6)C5)ccc4C3)sc2n1` [Example 437, 3-amino-N-[(6S)-2-[(5R,9R)-9-amino-2-oxa-7-azaspiro[4.4]nonan-7-yl]-5,6,7,8-tetrahydroquinolin-6-yl]-6-methylthieno[2,3-b]pyridine-2-carboxamide], the IC50 (read-out: USP25 A-3 IC50 range) was over 2000 nM.

For `CO[C@H]1CN(c2ccc3c(c2)OC[C@H](NC(=O)c2sc4nc(C)cnc4c2N)C3)C[C@@H]1N` [Example 117], the IC50 (read-out: USP25 A-3 IC50 range) fell in the range of 200 to 2000 nM.

Regarding `Cc1ccc2c(N)c(C(=O)N[C@H]3CCc4c(F)c(N5CC6CCC(C5)N6)cc(F)c4C3)sc2n1` (single isomer, unassigned) [Example 603], the IC50 under setting [1] lay within 1 to 50 nM.

As to `Cc1ccc2c(N)c(C(=O)N[C@@H]3CCc4c(C#N)c(N5CC6CCC(C5)N6)cc(F)c4C3)sc2n1` (single isomer, unassigned) [Example 14-18], for the setting “read-out: USP25 A-3 IC50 range”, the IC50 was over 2000 nM.

For the compound `Cc1ccc2c(N)c(C(=O)N[C@H]3CCc4cc(N5CCNCC5)ccc4C3)sc2n1` (single isomer, unassigned) [Example 11-21], the IC50 (read-out: USP25 A-3 IC50 range) was over 2000 nM.

`CCn1ccc2cc(C(=O)N[C@H]3CCc4nc(N5C[C@H](COC)[C@H](N)C5)ccc4C3)cnc21` (single isomer, unassigned) [Example 401]: the IC50 (read-out: USP25 A-3 IC50 range) is over 2000 nM.

Consider `Cc1cnc2c(N)c(C(=O)N[C@@H]3CCc4cc(N5C[C@H]6C[C@@H]5CN6)ccc4C3)sc2n1` (single isomer, unassigned) [Example 11-32], for which the IC50 (read-out: USP25 A-3 IC50 range) fell in the range of 200 to 2000 nM.

For the compound `CO[C@H]1CN(c2cc(F)c3c(c2C#N)CC[C@@H](NC(=O)c2sc4nc(C)ccc4c2N)C3)C[C@@H]1N` (single isomer, unassigned) [Example 14-24], the IC50 (read-out: USP25 A-3 IC50 range) was over 2000 nM.

On to `Cc1ccc2c(N)c(C(=O)N[C@@H]3CCc4cc(N5CC6CNCC(C5)O6)cc(F)c4C3)sc2n1` (single isomer, unassigned) [Example 11-40], for which, where the note is “read-out: USP25 A-3 IC50 range”, the IC50 was in the range of 50 to 200 nM.

In the case of `Cc1nc2sc(C(=O)N[C@H]3CCc4c(C#N)c(N5CCNCC5)cc(F)c4C3)c(N)c2s1` (single isomer, unassigned) [Example 14-14], the IC50 (read-out: USP25 A-3 IC50 range) was 200 to 2000 nM.

As to `Cc1ccc2c(N)c(C(=O)N[C@H]3COc4cc(N5C[C@@H](N)[C@](C)(CF)C5)ccc4C3)sc2n1` [Example 661, 3-amino-N-[(3R)-7-[(3R,4S)-4-amino-3-(fluoromethyl)-3-methylpyrrolidin-1-yl]-3,4-dihydro-2H-1-benzopyran-3-yl]-6-methylthieno[2,3-b]pyridine-2-carboxamide], under setting [1], the IC50 fell in the range of 50 to 200 nM.

On to `CO[C@H]1CN(c2ccc3c(c2)CC[C@H](NC(=O)c2sc4nc(C)ccc4c2N)C3)C[C@H]1N` [Example 144, 3-amino-N-[(2S)-6-[(3R,4S)-3-amino-4-methoxypyrrolidin-1-yl]-1,2,3,4-tetrahydronaphthalen-2-yl]-6-methylthieno[2,3-b]pyridine-2-carboxamide], for which the IC50 under setting [1] was 200 to 2000 nM.

Take `CN[C@@H]1CCN(c2ccc3c(c2)CC[C@H](NC(=O)c2sc4nc(C)cnc4c2N)C3)C1` (single isomer, unassigned) [Example 11-27]: the IC50 (read-out: USP25 A-3 IC50 range) was in the range of 200 to 2000 nM.

Consider `Cc1cnc2c(N)c(C(=O)N[C@@H]3CCc4cc(N5C[C@@H]6C[C@H]5CN6)ccc4C3)sc2n1` (single isomer, unassigned) [Example 11-30], for which, where the note is “read-out: USP25 A-3 IC50 range”, the IC50 was in the range of 200 to 2000 nM.

For the compound `Cc1cnc2c(N)c(C(=O)N[C@@H]3CCc4cc(N5CCNCC5)c(F)cc4C3)sc2n1` (single isomer, unassigned) [Example 21-11], where the note is “read-out: USP25 A-3 IC50 range”, the IC50 is over 2000 nM.

With `Cc1cnc2c(N)c(C(=O)N[C@H]3CCc4cc(N5C[C@@H]6C[C@H]5CN6)ccc4C3)sc2n1` (single isomer, unassigned) [Example 11-29], under “read-out: USP25 A-3 IC50 range”, the IC50 lay in the range of 200 to 2000 nM.

In the case of `Cc1ccc2c(N)c(C(=O)N[C@H]3COc4cc(N5C[C@H](N)[C@]6(CCOC6)C5)ccc4C3)sc2n1` [Example 656, 3-amino-N-[(3R)-7-[(5S,9R)-9-amino-2-oxa-7-azaspiro[4.4]nonan-7-yl]-3,4-dihydro-2H-1-benzopyran-3-yl]-6-methylthieno[2,3-b]pyridine-2-carboxamide], the IC50 under setting [1] was in the range of 200 to 2000 nM.

Consider `Cc1ccc2c(N)c(C(=O)N[C@@H]3CCc4nc(N5C[C@H](CF)[C@H](N)C5)ncc4C3)sc2n1` [Example 446, 3-amino-N-[(6R)-2-[(3S,4S)-3-amino-4-(fluoromethyl)pyrrolidin-1-yl]-5,6,7,8-tetrahydroquinazolin-6-yl]-6-methylthieno[2,3-b]pyridine-2-carboxamide], for which, for the setting “read-out: USP25 A-3 IC50 range”, the IC50 is over 2000 nM.

`CO[C@H]1CN(c2cc(F)c3c(c2C#N)CC[C@H](NC(=O)c2sc4nc(C)ccc4c2N)C3)C[C@@H]1N` (single isomer, unassigned) [Example 14-23]: the IC50 (read-out: USP25 A-3 IC50 range) was in the range of 200 to 2000 nM.

Consider `Cc1cnc2c(N)c(C(=O)N[C@H]3CCc4cc(N5CCNCC5)cc(F)c4C3)sc2n1` (single isomer, unassigned) [Example 11-38], for which, where the note is “read-out: USP25 A-3 IC50 range”, the IC50 was 200 to 2000 nM.

With `CO[C@@H]1CN(c2ccc3c(c2)OC[C@H](NC(=O)c2sc4nc(C)cnc4c2N)C3)C[C@@H]1N` [Example 147, 7-amino-N-[(3R)-7-[(3S,4R)-3-amino-4-methoxypyrrolidin-1-yl]-3,4-dihydro-2H-1-benzopyran-3-yl]-3-methylthieno[2,3-b]pyrazine-6-carboxamide], the IC50 under setting [1] fell in the range of 200 to 2000 nM.

As for `Cc1cnc2c(N)c(C(=O)N[C@H]3CCc4c(ccc(N5CCNCC5)c4F)C3)sc2n1` (single isomer, unassigned) [Example 21-10], for the setting “read-out: USP25 A-3 IC50 range”, the IC50 was over 2000 nM.

For the compound `Cc1cnc2c(N)c(C(=O)N[C@@H]3CCc4c(C#N)c(N5CC6CCC(C5)N6)cc(F)c4C3)sc2n1` (single isomer, unassigned) [Example 14-20], for the setting “read-out: USP25 A-3 IC50 range”, the IC50 was over 2000 nM.

Consider `CN[C@H]1CN(c2ccc3c(c2)OC[C@H](NC(=O)c2sc4nc(C)ccc4c2N)C3)C[C@@H]1CF` [Example 662, 3-amino-N-[(3R)-7-[(3S,4R)-3-(fluoromethyl)-4-(methylamino)pyrrolidin-1-yl]-3,4-dihydro-2H-1-benzopyran-3-yl]-6-methylthieno[2,3-b]pyridine-2-carboxamide], for which the IC50 under setting [1] was in the range of 1 to 50 nM.

Consider `Cc1ccc2c(N)c(C(=O)N[C@H]3COc4cc(N5CCNCC5)ccc4[C@H]3C)sc2n1` (single isomer, unassigned) [Example 11-15], for which the IC50 (read-out: USP25 A-3 IC50 range) is over 2000 nM.

As for `Cc1ccc2c(N)c(C(=O)N[C@@H]3CCc4nc(N5C[C@@H](CF)[C@@H](N)C5)ncc4C3)sc2n1` [Example 445, 3-amino-N-[(6R)-2-[(3R,4R)-3-amino-4-(fluoromethyl)pyrrolidin-1-yl]-5,6,7,8-tetrahydroquinazolin-6-yl]-6-methylthieno[2,3-b]pyridine-2-carboxamide], the IC50 (read-out: USP25 A-3 IC50 range) is over 2000 nM.

As to `Cc1ccc2c(N)c(C(=O)N[C@@H]3COc4cc(N5CCNCC5)ccc4[C@@H]3C)sc2n1` (single isomer, unassigned) [Example 11-18], the IC50 (read-out: USP25 A-3 IC50 range) was 200 to 2000 nM.

Take `Cc1ccc2c(N)c(C(=O)N[C@H]3COc4cc(N5C[C@H]6CC[C@@H]5CN6)ncc4C3)sc2n1` [Example 76, N-((R)-7-((1R,4R)-2,5-diazabicyclo[2.2.2]octan-2-yl)-3,4-dihydro-2H-pyrano[3,2-c]pyridin-3-yl)-3-amino-6-methylthieno[2,3-b]pyridine-2-carboxamide]: the IC50 (read-out: USP25 A-3 IC50 range) fell in the range of 50 to 200 nM.

Regarding `O=C(N[C@H]1COc2cc(N3CCNCC3)ccc2C1)c1ccc(NCc2ccc(Cl)cc2Cl)nc1` [Example 697, 6-{[(2,4-dichlorophenyl)methyl]amino}-N-[(3R)-7-(piperazin-1-yl)-3,4-dihydro-2H-1-benzopyran-3-yl]pyridine-3-carboxamide], the IC50 under setting [1] fell in the range of 1 to 50 nM.

In the case of `Cc1cnc2c(N)c(C(=O)N[C@H]3CCc4cc(N5C[C@H]6C[C@@H]5CN6)ccc4C3)sc2n1` (single isomer, unassigned) [Example 11-31], the IC50 (read-out: USP25 A-3 IC50 range) lay within 200 to 2000 nM.
